Reference: patent US7279491B2 (Janssen Pharmaceutica N.V., priority 2002, dated 2007)

Target: T1, human histamine H3 receptor (Homo sapiens, UniProt Q9Y5N1)
T1 construct: One microgram of supercoiled H3 receptor cDNA was added to the cells and mixed; expressed in transfected cells; membranes
Test: {3H}-N-methylhistamine binding to membranes of histamine H3 receptor-expressing SK-N-MC cells
Details: 0.8 nM {3H}-N-methylhistamine, 45 min at 25° C., Ki=(IC50)/(1+({L}/(Kd)), Kd 800 pM)
Procedure: Transfection of Cells with Human Histamine Receptor
A 10 cm tissue culture dish with a confluent monolayer of SK-N-MC cells was split two days prior to transfection. Using sterile technique the media was removed and the cells were detached from the dish by the addition of trypsin. One fifth of the cells were then placed onto a new 10 cm dish. Cells were grown in a 37° C. incubator with 5% CO2 in Minimal Essential Media Eagle with 10% Fetal Bovine Serum. After two days cells were approximately 80% confluent. These were removed from the dish with trypsin and pelleted in a clinical centrifuge. The pellet was then re-suspended in 400 μL complete media and transferred to an electroporation cuvette with a 0.4 cm gap between the electrodes. One microgram of supercoiled H3 receptor cDNA was added to the cells and mixed. The voltage for the electroporation was set at 0.25 kV, the capacitance was set at 960 μF. After electroporation the cells were diluted into 10 mL complete media and plated onto four 10 cm dishes. Because of the variability in the efficiency of electroporation, four different concentrations of cells were plated. The ratios used were; 1:20, 1:10, 1:5, with the remainder of the cells being added to the fourth dish. The cells were allowed to recover for 24 h before adding the selection media (complete media with 600 μg/mL G418). After 10 days dishes were analyzed for surviving colonies of cells. Dishes with well-isolated colonies were used. Cells from individual colonies were isolated and tested. SK-N-MC cells were used because they give efficient coupling for inhibition of adenylate cyclase. The clones that gave the most robust inhibition of adenylate cyclase in response to histamine were used for further study.
{^3H}-N-methylhistamine Binding
Cell pellets from histamine H3 receptor-expressing SK-N-MC cells were homogenized in 20 mM Tris HCl/0.5 mM EDTA. Supernatants from an 800 g spin were collected, recentrifuged at 30,000 g for 30 min. Pellets were re-homogenized in 50 mM Tris/5 mM EDTA (pH 7.4). Membranes were incubated with 0.8 nM {^3H}-N-methylhistamine plus/minus test compounds for 45 min at 25° C. and harvested by rapid filtration over GF/C glass fiber filters (pretreated with 0.3% polyethylenimine) followed by four washes with ice-cold buffer. Filters were dried, added to 4 mL scintillation cocktail and then counted on a liquid scintillation counter. Non-specific binding was defined with 10 μM histamine. The pKi values were calculated based on a Kd of 800 pM and a ligand concentration ({L}) of 800 pM according to the formula: Ki=(IC50)/(1+({L}/(Kd))

T1 sequence (Q9Y5N1 whole entry): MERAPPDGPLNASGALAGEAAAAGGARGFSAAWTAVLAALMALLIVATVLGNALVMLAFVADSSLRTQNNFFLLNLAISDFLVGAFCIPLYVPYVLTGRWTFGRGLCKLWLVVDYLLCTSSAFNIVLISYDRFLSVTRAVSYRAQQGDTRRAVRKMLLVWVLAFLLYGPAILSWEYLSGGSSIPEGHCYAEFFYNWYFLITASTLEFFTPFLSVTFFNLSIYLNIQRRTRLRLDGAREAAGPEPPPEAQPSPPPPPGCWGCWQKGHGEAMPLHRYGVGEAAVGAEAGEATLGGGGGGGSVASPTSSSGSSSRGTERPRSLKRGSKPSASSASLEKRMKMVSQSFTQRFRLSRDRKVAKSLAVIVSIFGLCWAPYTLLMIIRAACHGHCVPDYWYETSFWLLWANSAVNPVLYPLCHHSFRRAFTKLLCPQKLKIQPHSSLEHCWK

| Structure (SMILES) | Ki [nM] |
| --- | --- |
| Cc1cc(CN2CCCCC2)ccc1N1CCC(CN2CCCC2)CC1 [Example 75] | 6 |
| c1cc(N2CCC(CN3CCSCC3)CC2)ccc1CN1CCCC1 [Example 29, 4-{1-(4-Pyrrolidin-1-ylmethyl-phenyl)-piperidin-4-ylmethyl}-thiomorpholine] | 2 |
| Fc1cc(CN2CCCCC2)ccc1N1CCC(CN2CCCC2)CC1 [Example 80, 1-[3-Fluoro-4-(4-pyrrolidin-1-ylmethyl-piperidin-1-yl)-benzyl]-piperidine] | 4 |
| O=[N+]([O-])c1cc(CN2CCCCC2)ccc1N1CCC(CN2CCCC2)CC1 [Example 69] | 2 |
| c1cc(N2CCC(N3CCOCC3)CC2)ccc1CN1CCOCC1 [Example 50, 4-{1-(4-Morpholin-4-ylmethyl-phenyl)-piperidin-4-yl}-morpholine] | 272 |
| c1cc(CN2CCOCC2)cc(N2CCC(CN3CCCC3)CC2)c1 [Example 33, 4-{3-(4-Pyrrolidin-1-ylmethyl-piperidin-1-yl)-benzyl}-morpholine] | 20 |
| CN(C1CCCCC1)C1CCN(c2ccc(CN3CCOCC3)cc2)CC1 [Example 47, Cyclohexyl-methyl-{1-(4-morpholin-4-ylmethyl-phenyl)-piperidin-4-yl}-amine] | 5.8 |
| CN(C)Cc1ccc(N2CCC(CN3CCCC3)CC2)cc1 [Example 42, Dimethyl-{4-(4-pyrrolidin-1-ylmethyl-piperidin-1-yl)-benzyl}-amine] | 5 |
| FC(F)(F)c1cc(CN2CCCCC2)ccc1N1CCC(CN2CCCC2)CC1 [Example 68, 1-[4-(4-Pyrrolidin-1-ylmethyl-piperidin-1-yl)-3-trifluoromethyl-benzyl]-piperidine] | 14 |
| c1cc(CN2CCSCC2)cc(N2CCC(CN3CCCC3)CC2)c1 [Example 32, 4-{3-(4-Pyrrolidin-1-ylmethyl-piperidin-1-yl)-benzyl}-thiomorpholine] | 9 |
| Cc1cc(CN2CCN(C(C)C)CC2)ccc1N1CCC(CN2CCCC2)CC1 [Example 73, 1-Isopropyl-4-[3-methyl-4-(4-pyrrolidin-1-ylmethyl-piperidin-1-yl)-benzyl]-piperazine] | 16 |
| FC(F)(F)c1cc(N2CCC(CN3CCCC3)CC2)ccc1CN1CCCCC1 [Example 72, 1-[4-(4-Pyrrolidin-1-ylmethyl-piperidin-1-yl)-2-trifluoromethyl-benzyl]-piperidine] | 8 |
| c1cc(N2CCC(N3CCCCC3)CC2)ccc1CN1CCOCC1 [Example 52, 1′-(4-Morpholin-4-ylmethyl-phenyl)-{1,4′}bipiperidinyl] | 5.5 |
| c1ccc(NCC2CCN(c3ccc(CN4CCCC4)cc3)CC2)nc1 [Example 56, Pyridin-2-yl-{1-(4-pyrrolidin-1-ylmethyl-phenyl)-piperidin-4-ylmethyl}-amine] | 3 |
| c1cc(CN2CCCC2)cc(N2CCC(CN3CCCC3)CC2)c1 [Example 34, 4-Pyrrolidin-1-ylmethyl-1-(3-pyrrolidin-1-ylmethyl-phenyl)-piperidine] | 6 |
| OC1CCN(CC2CCN(c3ccc(CN4CCCC4)cc3)CC2)CC1 [Example 28, 1-{1-(4-Pyrrolidin-1-ylmethyl-phenyl)-piperidin-4-ylmethyl}-piperidin-4-ol] | 0.8 |

The remaining compounds from weak to strong by Ki, led by results:

| Ki [nM] | Structure (SMILES) |
| --- | --- |
| 4800 | c1ccc(N2CCC(CN3CCCC3)CC2)c(CN2CCOCC2)c1 [Example 43, 4-{2-(4-Pyrrolidin-1-ylmethyl-piperidin-1-yl)-benzyl}-morpholine] |
| 4500 | c1ccc(N2CCC(CN3CCCCC3)CC2)c(CN2CCOCC2)c1 [Example 22, 4-{2-(4-piperidin-1-ylmethyl-piperidin-1-yl)-benzyl}-morpholine] |
| 1000 | CN1CCN(C2CCN(c3ccc(CN4CCOCC4)cc3)CC2)CC1 [Example 48, 4-{4-{4-(4-Methyl-piperazin-1-yl)-piperidin-1-yl}-benzyl}-morpholine] |
| 170 | OCC1CCN(Cc2ccc(N3CCC(CN4CCCC4)CC3)c(C(F)(F)F)c2)CC1 [Example 82, {1-[4-(4-Pyrrolidin-1-ylmethyl-piperidin-1-yl)-3-trifluoromethyl-benzyl]-piperidin-4-yl}-methanol] |
| 48 | Fc1ccc(NCc2ccc(N3CCC(CN4CCCC4)CC3)cc2)cc1 [Example 59, (4-Fluoro-phenyl)-{4-(4-pyrrolidin-1-ylmethyl-piperidin-1-yl)-benzyl}-amine] |
| 36 | O=[N+]([O-])c1cc(CN2CCOCC2)ccc1N1CCC(CN2CCCC2)CC1 [Example 70, 4-[3-Nitro-4-(4-pyrrolidin-1-ylmethyl-piperidin-1-yl)-benzyl]-morpholine] |
| 34 | FC(F)(F)c1cc(N2CCC(CN3CCCC3)CC2)ccc1CN1CCOCCOCCOCCOCC1 [Example 81, 13-[4-(4-pyrrolidin-1-ylmethyl-piperidin-1-yl)-2-trifluoromethyl-benzyl]-1,4,7,10-tetraoxa-13-aza-cyclopentadecane Ditrifluoromethanesulfonate] |
| 23 | c1cc(N2CCC(CN3CCCCCCCCCCCC3)CC2)ccc1CN1CCCC1 [Example 24, 1-{1-(4-Pyrrolidin-1-ylmethyl-phenyl)-piperidin-4-ylmethyl}-azacyclotridecane] |
| 14 | CCN(C)C1CCN(c2ccc(CN3CCOCC3)cc2)CC1 [Example 49, Ethyl-methyl-{1-(4-morpholin-4-ylmethyl-phenyl)-piperidin-4-yl}-amine] |
| 10 | c1cc(CN2CCCCC2)cc(N2CCC(CN3CCCC3)CC2)c1 [Example 35, 1-{3-(4-pyrrolidin-1-ylmethyl-piperidin-1-yl)-benzyl}-piperidine] |
| 8.4 | c1ccc(NCc2ccc(N3CCC(N4CCCCC4)CC3)cc2)nc1 [Example 54, (4-{1,4′}Bipiperidinyl-1′-yl-benzyl)-pyridin-2-yl-amine] |
| 7 | Fc1cc(CN2CCC(c3ccccc3)CC2)ccc1N1CCC(CN2CCCC2)CC1 [Example 78, 1-{1-[2-Fluoro-4-(4-phenyl-piperidin-1-ylmethyl)-phenyl]-piperidin-4-ylmethyl}-pyrrolidine] |
| 6 | c1cc(N2CCC(CN3CCCC3)CC2)ccc1CN1CCCCCCCCCCCC1 [Example 36, 1-{4-(4-Pyrrolidin-1-ylmethyl-piperidin-1-yl)-benzyl}-azacyclotridecane] |
| 5 | c1cc(N2CCC(CN3CCOCC3)CC2)ccc1CN1CCCCC1 [Example 44, 4-{1-(4-Piperidin-1-ylmethyl-phenyl)-piperidin-4-ylmethyl}-morpholine] |
| 4 | c1cc(N2CCC(CN3CCCC3)CC2)ccc1CN1CCSCC1 [Example 40, 4-{4-(4-Pyrrolidin-1-ylmethyl-piperidin-1-yl)-benzyl}-thiomorpholine] |
| 4 | CN(C)Cc1ccc(N2CCC(CN3CCCC3)CC2)c(F)c1 [Example 79, [3-Fluoro-4-(4-pyrrolidin-1-ylmethyl-piperidin-1-yl)-benzyl]-dimethyl-amine] |
| 2.5 | c1cc(N2CCC(CN3CCCCC3)CC2)ccc1CN1CCCCC1 [Example 57, 1-{1-(4-Piperidin-1-ylmethyl-phenyl)-piperidin-4-ylmethyl}-piperidine] |
| 2 | c1cc(N2CCC(CN3CCCC3)CC2)ccc1CNC1CCCCC1 [Example 37, Cyclohexyl-{4-(4-pyrrolidin-1-ylmethyl-piperidin-1-yl)-benzyl}-amine] |
| 2 | c1cc(N2CCC(CN3CCCC3)CC2)ccc1CN1CCCCC1 [Example 45, 1-{4-(4-Pyrrolidin-1-ylmethyl-piperidin-1-yl)-benzyl}-piperidine] |
| 1.7 | CN(C)CC1CCN(c2ccc(CN3CCCC3)cc2)CC1 [Example 26, Dimethyl-{1-(4-pyrrolidin-1-ylmethyl-phenyl)-piperidin-4-ylmethyl}-amine] |
| 1.4 | CN1CCN(CC2CCN(c3ccc(CN4CCCC4)cc3)CC2)CC1 [Example 27, 1-Methyl-4-{1-(4-pyrrolidin-1-ylmethyl-phenyl)-piperidin-4-ylmethyl}-piperazine] |
| 1.3 | CN(CCc1ccccc1)CCC1CCN(c2ccc(CN3CCCCC3)cc2)C1 (stereo not shown) [Example 62, Methyl-phenethyl-{2-{1-(4-piperidin-1-ylmethyl-phenyl)-pyrrolidin-3-yl}-ethyl}-amine] |
| 1 | c1cc(N2CCC(CN3CCCCC3)CC2)ccc1CN1CCCC1 [Example 30, 1-{1-(4-Pyrrolidin-1-ylmethyl-phenyl)-piperidin-4-ylmethyl}-piperidine] |
| 0.9 | c1cc(N2CCC(CNC3CCCCC3)CC2)ccc1CN1CCCC1 [Example 23, Cyclohexyl-{1-(4-pyrrolidin-1-ylmethyl-phenyl)-piperidin-4-ylmethyl}-amine] |
